Experimental data from patent publication US10889616B2, “Cytotoxic tubulysin compounds for conjugation” (priority 2014, dated 2021).
Starred links: 1 amine or outer side, 2 acyl side, 3 side chain; linkers in the order of their positions; H or OH if unused. Non-standard residues stand in square brackets, D forms with d. Residues, ends and D or L forms follow the SMILES beside them. *: point of attachment. NPrTuv(OPr) = CCCO[C@H](C[C@H](C(C)C)N(CCC)[*:1])c1nc(C(=O)[*:2])cs1; Hexanoyl(6-maleimido) = O=C1C=CC(=O)N1CCCCCC(=O)*; X1 = C[C@@H](C[C@H](Cc1ccccc1)N*)C(=O)O; PABC = O=C(OCc1ccc(N[*:1])cc1)[*:2]; NMeI = CC[C@H](C)[C@H](NC)C(=O)O; Cit = NC(=O)NCCC[C@H](N)C(=O)O

How the values were obtained:
Format in all cases: cell-based
SK-N-MC = assay: cytotoxic activity, IC50 against SK-N-MC cells; details: Homo sapiens
BT474 = assay: cytotoxic activity, IC50 against BT474 cells; details: Homo sapiens; BT474 / BT-474 cells
MDA-MB-468 = assay: cytotoxic activity, IC50 against MDA-MB-468 cells; details: Homo sapiens
MCF7 = assay: cytotoxic activity, IC50 against MCF7 cells; details: Homo sapiens; MCF7 / MCF-7 cells
HEK293 = assay: cytotoxic activity, IC50 against HEK293 cells; details: Homo sapiens
SKBR3 = assay: cytotoxic activity, IC50 against SKBR3 cells; details: Homo sapiens, SK-BR-3
HT29 = assay: cytotoxic activity, IC50 against HT29 cells; details: Homo sapiens; HT29 / HT-29 cells
T47D = assay: cytotoxic activity, IC50 against T47D cells; details: Homo sapiens; T47D / T-47D cells
NCl-H1299 = assay: cytotoxic activity, IC50 against NCl-H1299 cells
A2780 = assay: cytotoxic activity, IC50 against A2780 cells; details: Homo sapiens
HT1080 = assay: cytotoxic activity, IC50 against HT1080 cells; details: Homo sapiens, HT-1080
[1] = IC50 as ADC with Herceptin and DAR 2; details: compound conjugated to Herceptin, DAR 2; cell line not given

Structure (SMILES)	IC50 (SK-N-MC) [nM]	IC50 (BT474) [nM]	IC50 (MDA-MB-468) [nM]	IC50 (MCF7) [nM]	also measured
CCCO[C@H](C[C@H](C(C)C)N(CCC)C(=O)[C@@H](NC(=O)[C@H](NC)[C@@H](C)CC)[C@@H](C)CC)c1nc(C(=O)N[C@@H](Cc2ccc(O)cc2)C[C@H](C)C(=O)OC)cs1 [TAM609]	2.12	0.5	3.32	2.17	
CCCO[C@H](C[C@H](C(C)C)N(CCC)C(=O)[C@@H](NC(=O)[C@H]1CCCCN1C)[C@@H](C)CC)c1nc(C(=O)N[C@@H](Cc2ccc(O)cc2)C[C@H](C)C(=O)NNC(=O)OCCOCCOCCN)cs1 [TAM375]			25.8		IC50 (HEK293): 34.6 nM; IC50 (SKBR3): 18.8 nM
CCCO[C@H](C[C@H](C(C)C)N(CCC)C(=O)[C@@H](NC(=O)[C@H]1CCCCN1)[C@@H](C)CC)c1nc(C(=O)N[C@@H](Cc2ccc(O)cc2)C[C@H](C)C(=O)O)cs1 [TAM334]		5.2			IC50 (SKBR3): 5.4 nM; IC50 (HT29): 12.3 nM
CCCO[C@H](C[C@H](C(C)C)N(CCC)C(=O)[C@@H](NC(=O)[C@H]1CCCCN1C)[C@@H](C)CC)c1nc(C(=O)N[C@@H](Cc2ccc(OCCNC)cc2)C[C@H](C)C(=O)O)cs1 [TAM365]	0.92		3.41		IC50 (HEK293): 0.99 nM
CCCO[C@H](C[C@H](C(C)C)N(CCC)C(=O)[C@@H](NC(=O)[C@H](CC(C)C)NC)[C@@H](C)CC)c1nc(C(=O)N[C@@H](Cc2ccccc2)C[C@H](C)C(=O)O)cs1 [TAM497]	83.3	50	85.6	64.3	
CCCO[C@H](C[C@H](C(C)C)N(CCC)C(=O)[C@@H](NC(=O)[C@@H](NC)[C@@H](C)CC)[C@@H](C)CC)c1nc(C(=O)N[C@@H](Cc2ccccc2)C[C@H](C)C(=O)O)cs1 [TAM491]	4.57	1.84	2.68	1.77	
CCCO[C@H](C[C@H](C(C)C)N(CCC)C(=O)[C@@H](NC(=O)[C@H]1CCCCN1C)[C@@H](C)CC)c1nc(C(=O)N[C@@H](Cc2ccccc2)C[C@H](C)C(=O)NN)cs1 [TPM320]	16	11			
CCCO[C@H](C[C@H](C(C)C)N(CCC)C(=O)[C@@H](NC(=O)[C@@H](NC)[C@@H](C)CC)[C@@H](C)CC)c1nc(C(=O)N[C@@H](Cc2ccc(O)cc2)C[C@H](C)C(=O)OC)cs1 [TAM598]	6.74		5.15	4.39	IC50 (T47D): 8.17 nM
CCCO[C@H](C[C@H](C(C)C)N(CCC)C(=O)[C@@H](NC(=O)[C@H]([C@@H](C)CC)N(C)C)[C@@H](C)CC)c1nc(C(=O)N[C@@H](Cc2ccccc2)C[C@H](C)C(=O)O)cs1 [TAM522]	1.54	0.98	2		
CCCO[C@H](C[C@H](C(C)C)N(CCC)C(=O)[C@@H](NC(=O)[C@@H](NC)[C@@H](C)CC)[C@@H](C)CC)c1nc(C(=O)N[C@@H](Cc2ccc(O)cc2)C[C@H](C)C(=O)O)cs1 [TAM599]	0.77		0.64	0.65	IC50 (T47D): 1.22 nM
CC[C@H](C)[C@H](NC(=O)[C@H]1CCCCN1C)C(=O)N(COC(=O)CC(C)C)[C@H](C[C@@H](OC(C)=O)c1nc(C(=O)N[C@@H](Cc2ccc(O)cc2)C[C@H](C)C(=O)NCCS)cs1)C(C)C [TAM674]					IC50 (NCl-H1299): 19 nM; IC50 (A2780): 8.7 nM; IC50 (HT29): 4.4 nM
CCCO[C@H](C[C@H](C(C)C)N(CCC)C(=O)[C@@H](NC(=O)[C@H]1CCCCN1C)[C@@H](C)CC)c1nc(C(=O)N[C@@H](Cc2ccc(OC(=O)NCCOCCOCCN)cc2)C[C@H](C)C(=O)O)cs1 [TAM371]	< 0.01		0.13		IC50 (HEK293): 0.1 nM
CCCO[C@H](C[C@H](C(C)C)N(CCC)C(=O)[C@@H](NC(=O)[C@H](CC(C)C)NC)[C@@H](C)CC)c1nc(C(=O)N[C@@H](Cc2ccccc2)C[C@H](C)C(=O)OC)cs1 [TAM496]	300	95.2	214	103	
CCCO[C@H](C[C@H](C(C)C)N(CCC)C(=O)[C@@H](NC(=O)[C@H]1CCCCN1C)[C@@H](C)CC)c1nc(C(=O)N[C@@H](Cc2ccc(O)cc2)C[C@H](C)C(=O)NNC(=O)OCCOCCOCCOCCNC(=O)CCCCCN2C(=O)C=CC2=O)cs1 [TAM552]					IC50 (HT1080): 10 nM
CCCO[C@H](C[C@H](C(C)C)N(CCC)C(=O)[C@@H](NC(=O)[C@H](NC)[C@@H](C)CC)[C@@H](C)CC)c1nc(C(=O)N[C@@H](Cc2ccc(O)cc2)C[C@H](C)C(=O)O)cs1 [TAM610]	0.1	0.1	0.3	0.2	
CCCO[C@H](C[C@H](C(C)C)N(CCC)C(=O)[C@@H](NC(=O)[C@H]([C@@H](C)CC)N(C)C)[C@@H](C)CC)c1nc(C(=O)N[C@@H](Cc2ccccc2)C[C@H](C)C(=O)OC)cs1 [TAM521]	15.3	4.07	20	6.74	
CCCO[C@H](C[C@H](C(C)C)N(CCC)C(=O)[C@@H](NC(=O)[C@H]1CCCCN1C)[C@@H](C)CC)c1nc(C(=O)N[C@@H](Cc2ccccc2)C[C@H](C)C(=O)NNC(=O)OCCOCCN)cs1 [TAM523]	150	65	221	92.1	
CCCO[C@H](C[C@H](C(C)C)N(CCC)C(=O)[C@@H](NC(=O)[C@H]([C@@H](C)CC)N(C)C(=O)OCc1ccc(NC(=O)[C@H](CCCNC(N)=O)NC(=O)[C@@H](NC(=O)CCCCCN2C(=O)C=CC2=O)C(C)C)cc1)[C@@H](C)CC)c1nc(C(=O)N[C@@H](Cc2ccccc2)C[C@H](C)C(=O)O)cs1 [TAM551] ({Hexanoyl(6-maleimido)}-V[Cit][PABC][NMeI]I[NPrTuv(OPr)]-X1)					IC50 (HT1080): 90 nM
CCCO[C@H](C[C@H](C(C)C)N(CCO)C(=O)[C@@H](NC(=O)[C@H]1CCCCN1C)[C@@H](C)CC)c1nc(C(=O)N[C@@H](Cc2ccc(O)cc2)C[C@H](C)C(=O)O)cs1 [TAM608]	1.54	1.69	2.24	4.06	
CCCO[C@H](C[C@H](C(C)C)N(CCC)C(=O)[C@@H](NC(=O)[C@H]1CCCCN1C)[C@@H](C)CC)c1nc(C(=O)N[C@@H](Cc2ccc(OCCCCN)cc2)C[C@H](C)C(=O)O)cs1 [TAM486]	48.5	50.9	81.5	57.5	IC50 (T47D): 142 nM
CCCO[C@H](C[C@H](C(C)C)N(CCC)C(=O)[C@@H](NC(=O)[C@H]1CCCCN1C)[C@@H](C)CC)c1nc(C(=O)N[C@@H](Cc2ccc(O)cc2)C[C@H](C)C(=O)NNC(=O)OCCOCCN=[N+]=[N-])cs1 [TAM426]			1.71	1.33	IC50 (T47D): 2 nM
CCCO[C@H](C[C@H](C(C)C)N(CCC)C(=O)[C@@H](NC(=O)[C@H]1CCCCN1C)[C@@H](C)CC)c1nc(C(=O)N[C@@H](Cc2ccc(O)cc2)C[C@H](C)C(=O)NNC(=O)OCCOCCN)cs1 [TAM428]			16.8	20.6	IC50 [1]: 0.219 nM; IC50 (T47D): 32 nM
CCCO[C@H](C[C@H](C(C)C)N(CCC)C(=O)[C@@H](NC(=O)[C@H]1CCCCN1C)[C@@H](C)CC)c1nc(C(=O)N[C@@H](Cc2ccc(O)cc2)C[C@H](C)C(=O)NCCOCCOCCOCCOCCOCCOCCN)cs1 [TAM597]					IC50 [1]: 0.172 nM
